Test results taken from US20230348506A1, “MACROCYCLIC PANTETHEINE DERIVATIVES AND USES THEREOF” (VectivBio Comet AG, priority 2019, published 2023).

Tests used:
[1] = tested on: primary adherent fibroblast cell line derived from an Methylmalonic Acidemia (MMA) patient (GM01673, Coriell Institute for Medical Research); assay: Mitochondrial respiration (Seahorse XFe96, OCR), Spare Capacity AUC; type: cell-based, human; conditions: 10 μM compound, 1 μM FCCP for 20 cycles, relative to vehicle
Experimental: The effect of the compounds of the present disclosure on mitochondrial respiration was measured with a XFe96 Extracellular Flux Analyzer (Seahorse Bioscience, Agilent Technologies) and Oxygen consumption Rate (OCR) and Extracellular acidification rate (ECAR) determined.
Cell culture and treatments. Primary adherent fibroblasts were cultured in minimum essential medium (MEM) (Gibco, 25030081) supplemented with 2 mM L-Glutamine (Gibco, 25030081), 15% fetal bovine serum (FBS) (Gibco, 26400044) and 1% penicillin/streptomycin (Gibco, 5140122) at 37° C. and 5% CO2. Cells were collected for either passaging or experiment at ˜70-80% confluence. Cells were obtained by trypsinization and seeded at 10,000 cells/well in cell culture microplates (Seahorse Bioscience, 101085-004) and allowed to adhere for 48 hours in culture media. […]
Determining the optimized cell density and concentrations for stress test, such as FCCP, were achieved through methods well known to those of skill in the art. After baseline measurements of OCR, cells were challenged with compounds of the present disclosure at different concentrations (10 to 50 μM) or vehicle (DMSO, 0.1%) and a post-compound baseline was recorded. OCR was measured after sequentially adding to each well 1.5 μg/ml oligomycin (inhibitor of ATP synthase Sigma-Aldrich, 753531), then maximal OCR was determined with carbonyl cyanide 4-(trifluoromethoxy) phenylhydrazone (FCCP, Sigma-Aldrich, C2920), (uncoupler of oxidative phosphorylation) and 1.0 μM of rotenone (Sigma-Aldrich, R8875) plus antimycin A (Sigma-Aldrich, A8674) (inhibitors of mitochondrial complex I and III) for determination of rotenone-antimycin insensitive respiration together with Hoechst for nuclear staining in situ when normalized to cell counts. After the analysis and nuclear staining, the XFp microplate was transferred to the Cytation 5, and the nuclear images were captured, the individual nuclei were identified and counted by BioTek Gen5 software. […]

[2] = tested on: Methylmalonic Acidemia (MMA) Primary fibroblasts (Tsi 5224 Trans-Hit Bio, 21498 Telethon Network of Genetic Biobanks); assay: Measurement of ATP (ATPlite assay); type: cell-based, human; conditions: 10 μM compound for 2 hours
Experimental: Primary adherent fibroblasts were cultured in minimum essential medium (MEM) (Gibco, 25030081) supplemented with 2 mM L-Glutamine (Gibco, 25030081), 15% fetal bovine serum (FBS) (Gibco, 26400044) and 1% penicillin/streptomycin (Gibco, 5140122) at 37° C. and 5% CO2. Cells were collected for either passaging or experiment at ˜70-80% confluence. Cells were obtained by trypsinization and seeded in cell culture microplates either white plate (Thermo Fisher Scientific, 152028) for luminescent measurement or black plate (Thermo Fisher Scientific, 165305) for fluorescent based read out for different assays listed below. Cells were obtained by trypsinization and […] were seeded and allowed to adhere for 16-18 hours to have confluency around 70-80% in the cell well with culture media. After 24 hours prior to measurements (37° C., 5% CO2) media was changed to Dulbecco's Modified Eagle Medium (DMEM, Agilent Seahorse cat #103575-100) with the appropriate supplements (1 mM glucose, 2 mM L-glutamine, 1 mM pyruvate, 10% FBS).
Assay was performed according to manufacturer instructions (ATPlite Assay Perkin Elmer, 6016941). 50 μl of cell lysis buffer was added to each well with cells in 100 μl of media and incubated for 5 mins at RT in an orbital shaker at 700 rpm to lyse the cells and stabilize the ATP. […]

In the case of `CC1(C)COC(=O)CCC(=O)SCCNC(=O)CCNC(=O)[C@@H]1O` [Compound 206, (R)-15-hydroxy-16,16-dimethyl-1-oxa-6-thia-9,13-diazacycloheptadecane-2,5,10,14-tetraone], the “increase of Spare Capacity AUC” value ([1]; medium with 1 mM glucose) is reported as “at least 50%”, the “increase of Spare Capacity AUC” value ([1]; medium with 10 mM glucose, 2 mM glutamine, 1 mM pyruvate) is reported as over 10% and the “increase of ATP levels” value [2] is reported as “at least 5%”.
